Tested on: cornroot worm (Diabrotica balteata)
Test: Residual soil activity against cornroot worm larvae, mortality after 48 hours, LC50 by probit analysis
Type: in vivo
Settings: sandy soil, 10% moisture, 22 g, 20° C., 10 larvae, two replicates, 5 dose levels
Experimental: Residual soil activity of the compounds of Examples 25 to 40 was assessed against cornroot worm (Diabrotica balteata) using the following technique.
A known quantity of test compound dissolved in 1.0 ml acetone was applied evenly to a standard amount (22 g) of a sandy soil with a 10% moisture content. After 1 hour, 10 larvae were introduced. The temperature was maintained at 20° C. ±1° C. and mortality assessed after 48 hours. Two replicates of 10 larvae were used at each of 5 dose levels per compound. LC50 values were calculated as concentration of insecticide in the standard amount of soil using probit analysis.

For `Fc1ccc(C/C=C/C2(c3ccc(Cl)cc3)CC2)cc1Oc1ccccc1` [Comp A, 1-(4-chlorophenyl)-1-(E-3-(4-fluoro-3-phenoxyphenyl)prop-1-enyl)-cyclopropane, reference compound], the “Residual Soil Activity (LC50)” value was 0.68 ppm.

For `CCOc1ccc(C2(/C=C/Cc3ccc(F)c(Oc4ccccc4)c3)CC2)cc1` [Comp B, 1-(4-ethoxyphenyl)-1-(E-3-(4-fluoro-3-phenoxyphenyl)prop-1-enyl)-cyclopropane, reference compound], the “Residual Soil Activity (LC50)” value was 0.43 ppm.

For `Fc1ccc(C2(/C=C/Cc3ccc(F)c(Oc4ccccc4)c3)CC2)cc1` [Comp C, 1-(4-fluorophenyl)-1-(E-3-(4-fluoro-3-phenoxyphenyl)prop-1-enyl)-cyclopropane, reference compound], the “Residual Soil Activity (LC50)” value was 0.059 ppm.

For `FC(F)(F)Oc1ccc(C2(/C=C/Cc3cccc(Oc4ccccc4)c3)CC2)cc1` [Comp D, 1-(4-trifluoromethoxyphenyl)-1-(E-3-(3-phenoxyphenyl)prop-1-enyl)-cyclopropane, reference compound], the “Residual Soil Activity (LC50)” value was 0.059 ppm.

`F/C(=C\C1(c2ccc(Cl)cc2)CC1)Cc1cccc(Oc2ccccc2)c1` [Example 25, 1-(4-Chlorophenyl)-1-(2-fluoro-3-(3-phenoxyphenyl)prop-1-enyl)cyclopropane] was tested, and the “Residual Soil Activity (LC50)” value was 0.031 ppm.

`CCOc1ccc(C2(/C=C(\F)Cc3cccc(Oc4ccccc4)c3)CC2)cc1` [Example 26, 1-(4-Ethoxyphenyl)-1-(2-fluoro-3-(3-phenoxyphenyl)prop-1-enyl)cyclopropane] was tested, and the “Residual Soil Activity (LC50)” value was 0.029 ppm.

`F/C(=C\C1(c2ccc(OC(F)(F)F)cc2)CC1)Cc1cccc(Oc2ccccc2)c1` [Example 27, 1-(2-Fluoro-3-(3-phenoxyphenyl)prop-1-enyl)-1-(4-trifluoromethoxy-phenyl)cyclopropane] was tested, and the “Residual Soil Activity (LC50)” value was 0.038 ppm.

For `F/C(=C\C1(c2ccc(F)cc2)CC1)Cc1cccc(Oc2ccccc2)c1` [Example 28, 1-(2-Fluoro-3-(3-phenoxyphenyl)prop-1-enyl)-1-(4-fluorophenyl)cyclopropane], the “Residual Soil Activity (LC50)” value was 0.015 ppm.

In the case of `F/C(=C\C1(c2ccc(C(F)(F)F)cc2F)CC1)Cc1cccc(Oc2ccccc2)c1` [Example 29, 1-(2-Fluoro-3-(3-phenoxyphenyl)prop-1-enyl)-1-(2-fluoro-4-trifluoromethylphenyl) cyclopropane], the “Residual Soil Activity (LC50)” value is reported as 0.030 ppm.

In the case of `F/C(=C\C1(c2ccc3c(c2)OCO3)CC1)Cc1cccc(Oc2ccccc2)c1` [Example 30, 1-(2-Fluoro-3-(3-phenoxyphenyl)prop-1-enyl)-1-(3,4-methylenedioxyphenyl)cyclopropane], the “Residual Soil Activity (LC50)” value is reported as 0.021 ppm.

With `F/C(=C\C1(c2ccc(OC(F)F)cc2)CC1)Cc1cccc(Oc2ccccc2)c1` [Example 32, 1-(4-Difluoromethoxyphenyl)-1-(2-fluoro-3-(3-phenoxyphenyl)prop-1-enyl)cyclopropane] the “Residual Soil Activity (LC50)” value was 0.055 ppm.

In the case of `CCOc1ccc(C2(/C=C(\F)Cc3ccc(F)c(Oc4ccccc4)c3)CC2)cc1` [Example 34, 1-(4-Ethoxyphenyl)-1-(2-fluoro-3-(4-fluoro-3-phenoxyphenyl)prop-1-enyl)cyclopropane], the “Residual Soil Activity (LC50)” value is reported as 0.031 ppm.

With `F/C(=C\C1(c2ccc(F)cc2)CC1)Cc1ccc(F)c(Oc2ccccc2)c1` [Example 35, 1-(2-Fluoro-3-(4-fluoro-3-phenoxyphenyl)prop-1-enyl)-1-(4-fluorophenyl)cyclopropane] the “Residual Soil Activity (LC50)” value was 0.032 ppm.

In the case of `F/C(=C\C1(c2ccc(C(F)(F)F)cc2F)CC1)Cc1ccc(F)c(Oc2ccccc2)c1` [Example 36, 1-(2-Fluoro-3-(4-fluoro-3-phenoxyphenyl)prop-1-enyl)-1-(2-fluoro-4-trifluoromethylphenyl)cyclopropane], the “Residual Soil Activity (LC50)” value is reported as 0.021 ppm.

With `F/C(=C\C1(c2ccc3c(c2)OCO3)CC1)Cc1ccc(F)c(Oc2ccccc2)c1` [Example 37, 1-(2-Fluoro-3-(4-fluoro-3-phenoxyphenyl)prop-1-enyl)-1-(3,4-methylenedioxyphenyl)cyclopropane] the “Residual Soil Activity (LC50)” value was 0.055 ppm.

For `F/C(=C\C1(c2ccc(OC(F)F)cc2)CC1)Cc1ccc(F)c(Oc2ccccc2)c1` [Example 39, 1-(4-Difluoromethoxyphenyl)-1-(2-fluoro-3-(4-fluoro-3-phenoxyphenyl)prop-1-enyl)cyclopropane], the “Residual Soil Activity (LC50)” value was 0.033 ppm.
